Laboratory results taken from patent publication US7557116B2, “Substance which exhibits antiviral and antibacterial activity and is based on derivatives of 2,8-dithioxo-1H-pyrano[2,3d 6,5-d′]dipyrimidyne and 10-aza-analogue thereof” (priority 2003, dated 2009).
Read-outs that look alike come from different tables or passages of the source. Marks after values point to notes of the source that are not given here.

What was measured:
Format in all cases: cell-based
Influenza virus A = system: Influenza virus A
[1] = system: Chlamydia trachomatis D323; experiment: Protection of cell culture from Chlamydia trachomatis (immunofluorescence, cytoplasmatic inclusions)
From the text: The antiviral activity of the claimed compounds were also all tested against the Chlemydia trachomatis. The effects of the claimed compounds on the Chlamydia trachomatis are charted in TABLE 4. A relative strain of Chlamydia trachomatis D323 was used to test the claimed compounds. The strain, derived from a patient with Chlamydia urethritis, comprised a morphology and a physiological activity characteristic of and representative of that type. An infection dose of Chlamydia having a concentration of 1/10^6 cells/ml was introduced into a cell culture. Immunofluorescence (MicroTrack Chlamydia trachomatis Direct Specimen Test) was conducted to determine the significance of the chlamydial cytoplasmatic inclusions (CPI). A CylaMonoScreen was conducted to obtain the chlamydia antigens. The monolayer state and the number of cells with CPI were compared to the control to determine the effects the claimed compounds have on the chlamydia. The number of unchanged cells in 100 visual fields were counted utilizing a special net on a microscopic eyepiece.

Influenza virus B = system: Influenza virus B
Herpes virus of type I = experiment: Protection of Vero cells from Herpes virus of type I; settings: for Number of cells: number of cells in 100 fields
[2] = system: Human Immunodeficiency Virus Type 1; experiment: Anti-HIV activity: protection of MT4 T-lymphoblastoid cells (IFA)
Procedure: Activity against the Human immunodeficiency Virus (HIV) was also determined and, more specifically, the compounds antiviral effectiveness in protecting the T-lymphoblastoid cells MT4 from being infected by the virus-containing liquid of HTHIV27 cultures. The cells infected by the virus were analyzed according to the following methods: (1) An indirect immunofluorescence (IFA) with a polyclonal anti-serum was received from an HIV Infected human (the antibody titer in the IFA was 1:1000000) and, (2) A competitive IFA was utilized with monoclonal antibodies (MonAb) to p24 HIV and a polyclonal substrate. A solution of 1:540 was used in the tests. Azidothymidin (AZT) was used as the control.
The results documented in the table shown in TABLE 6 evidence that the compounds tested inhibit the reproduction of the Human Immunodeficiency Virus Type 1.

[3] = Influenza virus A, 48 hours at 33-34 C, ineffective when IN less than 1.0
[4] = Influenza virus B, 72 hours at 33-34 C, ineffective when IN less than 1.0

Compound | Index of neutralization (Influenza virus A; [3]) | Percentage of cells' defense from C. trachomatis ([1]; compound 30 mg/l) | Percentage of cells' defense from C. trachomatis ([1]; compound 100 mg/l) | Index of neutralization (Influenza virus B; [4]) | percentage of protection of cells from virus (Herpes virus of type I; compound 10 mg/l) | Number of cells (Herpes virus of type I; compound 10 mg/l) | percentage of protection of cells from virus (Herpes virus of type I; compound 50 mg/l) | percentage of protection of cells from virus (Herpes virus of type I; compound 100 mg/l) | Number of cells (Herpes virus of type I; compound 50 mg/l) | Number of cells (Herpes virus of type I; compound 100 mg/l) | Level of inhibition of virus reproduction ([2]; 5 mg/l) | Level of inhibition of virus reproduction ([2]; 50 mg/l) | Level of inhibition of virus reproduction ([2]; 100 mg/l) | Index of neutralization (Influenza virus A) | Index of neutralization (Influenza virus B)
CNc1nc(=S)[nH]c2c1C(c1ccc([N+](=O)[O-])cc1)c1c(O)nc(=S)[nH]c1O2 (stereo not shown) [VIII, 4-methylamino-6-hydroxi-5-(4-nitrophenyl)-5,9-dihydro-1H-pyrano[2,3d: 6,5-d′]dipyrimidine-2,8-dition] | 2.0 | 70% | 90% | 1.5 | – | – | – | – | – | – | – | – | – | – | –
Nc1nc2c(ncn2COCCO)c(=O)[nH]1 [Acyclovir, reference compound] | – | – | – | – | (80%)**** | 9600*** | – | – | – | – | – | – | – | – | –
O=[N+]([O-])c1ccc(C2c3c(O)nc(=S)[nH]c3Oc3[nH]c(=S)nc(Sc4nc(O)cc(O)n4)c32)cc1 (stereo not shown) [X, 4-(4,6-dihydroxipirimidine-2sulfanil)-6-hydroxi-5-(4-nytrophenyl)-5,9-dihydro-1H-pyrano [2,3-d: 6,5-d′]dipyrimidine-2,8-dition] | 1.5 | 60% | 100% | 1.0 | 60% | 7200 | 80% | 90% | 9600 | 10800 | – | – | – | – | –
Oc1nc(=S)[nH]c2c1C(c1ccccc1)c1c(Cl)nc(=S)[nH]c1O2 (stereo not shown) [Ia, 4-chlorine-6-hydroxi-5-aryl-5,9-dihydro-1H-pyrano[2,3d: 6,5-d′]dipyrimidine-2,8-dition] | – | – | – | – | 60% | 7200 | 80% | 90% | 9600 | 10800 | – | – | – | – | –
Nc1nc(=S)[nH]c2c1C(c1ccc([N+](=O)[O-])cc1)c1c(N)nc(=S)[nH]c1O2 [V, 4,6-diamino-5-(4-nytrophenyl)-5,9-dihydro-1H-pyrano[2,3-d: 6,5-d′]dipyrimidine-2,8-dition] | 1.0 | 50% | 80% | 1.5 | 60% | 7200 | 80% | 90% | 9600 | 10800 | 90% | 100% | 100% | – | –
O=[N+]([O-])c1ccc(C2c3c(O)nc(=S)[nH]c3Oc3[nH]c(=S)nc(O)c32)cc1 [XII] | – | 40% | 60% | – | 10% | 1200 | 30% | 50% | 3600 | 6000 | – | – | – | – | –
Nc1nc(=S)[nH]c2c1C(c1ccc([N+](=O)[O-])cc1)c1c(N)nc(=S)[nH]c1N2 [VI, 4,5-diamino-10-(4-nytrophenyl)-9,10-dihydro-1H,8H-1,3,6,8,9-pentaazaantrecen-2,7dition] | 20 | 50% | 80% | 1.5 | 70% | 8400 | 90% | 100% | 10800 | 12000 | – | – | – | – | –
Nc1nc(=S)[nH]c2c1C(c1ccc([N+](=O)[O-])cc1)c1c(Cl)nc(=S)[nH]c1O2 (stereo not shown) [IV, 4-chlorine-6-amino-5-(4-dinytrophenyl)-5,9-dihydro-1H-pyrano[2,3-d: 6,5-d′]dipyrimidine-2,8-dition] | 2.0 | 50% | 80% | 1.5 | 50% | 6000 | 70% | 80% | 8400 | 9600 | – | – | – | – | –
O=[N+]([O-])c1ccc(C2c3c(Cl)nc(=S)[nH]c3Oc3[nH]c(=S)nc(Cl)c32)cc1 [Iia, 4,6-dichlorine-5-(4-nitrophenyl)-5,9-dihydro-1H-pyrano[2,3-d: 6,5-d′]dipyrimidine-2,8-dition] | 1.5 | 70% | 90% | 1.5 | – | – | – | – | – | – | – | – | – | – | –
Nc1nc(=S)[nH]c2c1C(c1ccc([N+](=O)[O-])cc1)c1c(O)nc(=S)[nH]c1O2 (stereo not shown) [III, 4-amino-6-hydroxi-5-(4-nitrophenyl)-5,9-dihydro-1H-pyrano[2,3-d: 6,5-d′]dipyrimidine-2,8-dition] | 0.5 | 70% | 100% | 1.0 | 70% | 8400 | 80% | 100% | 9600 | 12000 | 70% | 90% | 100% | – | –
CN(C)c1nc(=S)[nH]c2c1C(c1ccc([N+](=O)[O-])cc1)c1c(O)nc(=S)[nH]c1O2 (stereo not shown) [IX, 4-dimethylamine-6-hydroxi-5-(4-nitrophenyl)-5,9-dihydro-1H-pyrano[2,3-d: 6,5-d′]dipyrimidine-2,8-dition] | – | 50% | 80% | – | 50% | 6000 | 70% | 80% | 8400 | 9600 | – | – | – | 2.0 | 1.5
4-chlorine-6-hydroxi-5-aryl-5,9-dihydro-1H-pyrano[2,3d: 6,5-d′]dipyrimidine-2-8-dition [Iib] | – | – | – | – | 70% | 8400 | 90% | 100% | 10800 | 12000 | – | – | – | – | –
O=[N+]([O-])c1ccc(C2c3cnc(=S)[nH]c3Oc3[nH]c(=S)nc(O)c32)cc1 (stereo not shown) [XI, 6-hydroxi-5-4-(4-nitrophenyl)-5,9-dihydro-1H-pyrano[2,3-d: 6,5-d′]dipyrimidine-2,8-dition] | 1.5 | 50% | 90% | 1.5 | 50% | 6000 | 70% | 80% | 8400 | 9600 | – | – | – | – | –
